{
  "source": "paper PMC11620506",
  "about": "“Inhibition of endocytic uptake of severe acute respiratory syndrome coronavirus 2 and endo-lysosomal acidification by diphenoxylate” (Antimicrobial Agents and Chemotherapy, 2024)",
  "key": {"SARS-CoV-2 [1]": {"test_system": "SARS-CoV-2", "assay_type": "in vivo, mice"}, "[2]": {"test_system": "SARS-CoV-2 (original wild-type, hCoV-19/Korea/KCDC06/2020)", "assay": "microbe, parasite or virus in culture", "assay_type": "cell-based", "settings": "for EC50: Severe acute respiratory syndrome coronavirus 2, Vero cells, immunofluorescence images, n = 3, read-out: EC50, half maximal effective concentration to reduce SARS-CoV-2 spike protein expression by 50%"}, "in vitro": {"assay": "in vitro", "settings": "African green monkey", "procedure": "Following the method described earlier, Vero cells in 96 wells were treated with threefold serial dilutions of each compound, ranging from 100 µM to 5 nM, both with and without SARS-CoV-2 infection at 0.01 MOI. […] Concurrently, the viability of mock-infected cells was assessed using a 3-(4,5-dimethylthiazol-2-yl)−2,5-diphenyltetrazolium bromide (MTT) assay to determine the 50% cytotoxic concentration (CC50). The selectivity index (SI) is calculated as the ratio of CC50 to EC50."}, "SARS-CoV-2 [3]": {"test_system": "SARS-CoV-2", "assay_type": "cell-based", "settings": "20 µM, Vero cells; for nuclei numbers compared to the control: DAPI"}, "SARS-CoV-2 [4]": {"test_system": "SARS-CoV-2", "assay": "Antiviral activity assay (anti-S immunofluorescence) in Calu-3 cells", "settings": "Severe acute respiratory syndrome coronavirus 2, Calu-3, 24 h", "source_text": "These mixtures were serially diluted threefold, eight times, in EMEM and used to treat SARS-CoV-2-infected Calu-3 cells (MOI of 0.01). On day 1, cells were immunostained with an anti-S-antibody and its fluorescently labeled secondary antibody to estimate the two fractional EC50s (FEC50s) for each drug combination, as well as their sum (ΣFEC50). The interaction was defined as synergistic when the ΣFEC50 value was less than 0.8 ([27]).\nCalu-3 cells were either mock-infected or infected with SARS-CoV-2 (MOI, 0.1)\n(§1) On Day 1 after treatment, the viral S protein was labeled with its specific antibody for an\nimmunofluorescence assay, while mock-infected cells were incubated with MTT.\n(§2) activity was determined by calculating the percentage inhibition of the S protein level relative\nto that in SARS-CoV-2-infected, DMSO-treated cells (red line).\n(§3) are represented as the mean ± SEM from three independent experiments."}, "Calu-3 cells": {"test_system": "Calu-3 cells", "settings": "MTT", "procedure": "Calu-3 cells. Calu-3 cells were either mock-infected or infected with SARS-CoV-2 (MOI, 0.1)\nas §1\nimmunofluorescence assay, while mock-infected cells were incubated with MTT. Antiviral\nas §2\nto that in SARS-CoV-2-infected, DMSO-treated cells (red line). Cell viability was determined\nby measuring cell metabolic activity using MTT relative to naive cells (black line). All values\nas §3"}, "[5]": {"settings": "cited from earlier work"}, "SARS-CoV-2 [6]": {"test_system": "SARS-CoV-2", "assay": "Antiviral assay using human tonsil organoids (RT-PCR of supernatants)", "assay_type": "cell-based", "settings": "day 2"}, "SARS-CoV-2 [7]": {"test_system": "SARS-CoV-2", "assay_type": "cell-based", "settings": "Vero cells; 1, 10 and 100 µM; day 1"}, "SARS-CoV-2 [8]": {"test_system": "SARS-CoV-2", "assay_type": "cell-based"}, "SARS-CoV-2 [9]": {"test_system": "SARS-CoV-2", "assay_type": "cell-based", "settings": "Calu-3 cells, day 2"}, "[10]": {"settings": "mice"}, "in vivo": {"assay": "in vivo", "settings": "male, ICR, mouse, iv, 5 mg/kg, T1/2, terminal half-life in plasma, mice, diphenoxylate 5 mg/kg intravenously, analyte in plasma, mean ± SEM, three mice"}, "[11]": {"test_system": "endo-lysosomal vesicles of Vero cells", "assay": "Acridine orange staining of endo-lysosomal vesicle pH in Vero cells", "assay_type": "cell-based", "settings": "10 µM, 1 h at 37°C", "experimental": "To monitor pH changes in endo-lysosomal vesicles, Vero cells (8 × 10^4 cells per 35 mm dish) were treated with either DMSO or 10 µM diphenoxylate for 1 h at 37°C. After washing with PBS, they were stained with acridine orange (8 µg/mL) for an additional 30 min. With excitation at 488 nm, live cell images were scanned at two wide-band emission wavelength ranges: 493–560 nm (green) and 590–720 nm (red). All fluorescent images were obtained using a Zeiss LSM 700 confocal microscope and analyzed with ZEN software (Carl Zeiss, Thornwood, NY, USA).\nFig 4 Deacidification of endo-lysosomal vesicles by diphenoxylate. Vero cells were treated with DMSO as a mock control (upper), or with 10 µM diphenoxylate (lower), at 37°C for 1 h. […] Fluorescence images were acquired after excitation at 488 nm, at two different emission wavelengths: 493–560 nm (green; left) and 590–720 nm (red; middle). The images were merged (right) to distinguish acidic (red) and neutralized cytoplasmic vesicles (green or yellow) based on the red-to-green fluorescence intensity ratio. […]\nFigure S2. […] After excitation at 488 nm, fluorescence images were acquired at two different emission wavelengths: 493-560 nm (green; left) and 590-720 nm (red; middle). The images were merged (right) to distinguish acidic (red) and neutralized cytoplasmic vesicles (green or yellow) based on the red-to-green fluorescence intensity ratio. […]"}, "SARS-CoV-2 [12]": {"test_system": "SARS-CoV-2", "assay_type": "cell-based", "settings": "Calu-3 cells; 0.001–100 µM; day 2"}, "SARS-CoV-2 [13]": {"test_system": "SARS-CoV-2", "assay": "Confocal microscopy of viral N protein distribution (endocytic uptake) in Vero cells", "assay_type": "cell-based", "settings": "10 or 30 µM"}, "SARS-CoV-2 [14]": {"test_system": "SARS-CoV-2", "assay_type": "cell-based", "remark": "listed apart in the source"}},
  "note": "Entries after “also recorded” stand apart in the source; their conditions may differ. Like-named read-outs stand apart in the source and are kept apart here.",
  "data": [
    {"compound": "CC(C)C(=O)OC[C@H]1O[C@@H](n2ccc(NO)nc2=O)[C@H](O)[C@@H]1O", "note": "[molnupiravir]", "values": [
      {"measurement": "viral RNA levels in lungs (qRT-PCR, S gene)", "setting": "SARS-CoV-2 [1]; hACE2 transgenic mice, 50 mg/kg/day oral, BID, […]", "value": "significantly reduced"}
    ]},
    {"compound": "Cc1cccc(CN2CCN(C(c3ccccc3)c3ccc(Cl)cc3)CC2)c1", "note": "(stereo not drawn) [Meclizine, meclizine]", "values": [
      {"measurement": "SI, selectivity index, ratio of CC50 to EC50", "setting": "[2]", "value": 4.2},
      {"measurement": "EC50", "setting": "[2]", "value": "21.4 ± 3", "unit": "µM"},
      {"measurement": "CC50", "setting": "in vitro", "value": "89.5 ± 4.4", "unit": "µM"},
      {"measurement": "nuclei numbers compared to the control", "setting": "SARS-CoV-2 [3]", "value": "80%–120%"},
      {"measurement": "reduction of S protein expression level", "setting": "SARS-CoV-2 [3]", "value": "over 90%"}
    ]},
    {"compound": "N=C(N)c1ccc2cc(OC(=O)c3ccc(N=C(N)N)cc3)ccc2c1", "note": "[nafamostat]", "values": [
      {"measurement": "EC50", "setting": "SARS-CoV-2 [4]", "value": "0.0035 ± 0.0005", "unit": "µM"},
      {"measurement": "cytotoxicity at the highest tested concentration", "setting": "Calu-3 cells; 300 nM", "value": "no cytotoxicity"}
    ]},
    {"compound": "COC(=O)C1=C(C)NC(C)=C(C(=O)OCCN2CCN(C(c3ccccc3)c3ccccc3)CC2)C1c1cccc([N+](=O)[O-])c1", "note": "(stereo not drawn) [Manidipine, manidipine]", "values": [
      {"measurement": "SI, selectivity index, ratio of CC50 to EC50", "setting": "[2]", "value": 1.7},
      {"measurement": "EC50", "setting": "[2]", "value": "26.8 ± 1.1", "unit": "µM"},
      {"measurement": "CC50", "setting": "in vitro", "value": "46.6 ± 0.5", "unit": "µM"},
      {"measurement": "nuclei numbers compared to the control", "setting": "SARS-CoV-2 [3]", "value": "80%–120%"},
      {"measurement": "reduction of S protein expression level", "setting": "SARS-CoV-2 [3]", "value": "over 90%"}
    ]},
    {"compound": "Fc1ccc(C(c2ccc(F)cc2)N2CCN(C/C=C/c3ccccc3)CC2)cc1", "note": "[Flunarizine, flunarizine]", "values": [
      {"measurement": "SI, selectivity index, ratio of CC50 to EC50", "setting": "[2]", "value": 2.4},
      {"measurement": "EC50", "setting": "[2]", "value": "12.9 ± 5.7", "unit": "µM"},
      {"measurement": "CC50", "setting": "in vitro", "value": "30.6 ± 1.8", "unit": "µM"},
      {"measurement": "nuclei numbers compared to the control", "setting": "SARS-CoV-2 [3]", "value": "80%–120%"},
      {"measurement": "reduction of S protein expression level", "setting": "SARS-CoV-2 [3]", "value": "over 90%"}
    ]},
    {"compound": "CN(C)c1ccc2cc3ccc(N(C)C)cc3nc2c1", "note": "[acridine orange]", "values": [
      {"measurement": "pKa", "setting": "[5]", "value": "approximately 9.65"}
    ]},
    {"compound": "CCC(CC)COC(=O)[C@H](C)N[P@](=O)(OC[C@H]1O[C@@](C#N)(c2ccc3c(N)ncnn23)[C@H](O)[C@@H]1O)Oc1ccccc1", "note": "[RDV, remdesivir]", "values": [
      {"measurement": "reduction in viral RNA levels in culture supernatants", "setting": "SARS-CoV-2 [6]; 10 µM", "value": "between one and two logs"},
      {"measurement": "EC50", "setting": "[2]", "value": "7.6 ± 1.2", "unit": "µM"},
      {"measurement": "levels of S2 and additional S cleavage products (Western blot)", "setting": "SARS-CoV-2 [7]", "value": "dose-dependently reduced"},
      {"measurement": "CC50", "setting": "in vitro", "value": "> 100", "unit": "µM"},
      {"measurement": "viral RNA copy numbers in culture supernatants", "setting": "SARS-CoV-2 [8]", "value": "efficiently suppressed"},
      {"measurement": "reduction of viral RNA levels in culture supernatants", "setting": "SARS-CoV-2 [9]; concentration not given", "value": "exceeding four logs"}
    ]},
    {"compound": "N#CC(CCN1CCC(C(=O)O)(c2ccccc2)CC1)(c1ccccc1)c1ccccc1", "note": "[Difenoxin, difenoxin]", "values": [
      {"measurement": "T1/2, terminal half-life in plasma", "setting": "[10]; diphenoxylate 5 mg/kg intravenously, analyte in plasma, mean ± SEM, three mice", "value": "3.6 ± 0.2", "unit": "h"},
      {"measurement": "EC50", "setting": "[2]", "value": "> 100", "unit": "µM"},
      {"measurement": "CC50", "setting": "in vitro", "value": "> 100", "unit": "µM"},
      {"measurement": "half-life", "setting": "in vivo", "value": 6.4, "unit": "h"},
      {"measurement": "effect on acidic pH of endo-lysosomal vesicles", "setting": "[11]", "value": "failed to deacidify endo-lysosomes"}
    ]},
    {"compound": "CCOC(=O)C1(c2ccccc2)CCN(CCC(C#N)(c2ccccc2)c2ccccc2)CC1", "note": "[Diphenoxylate, diphenoxylate]", "values": [
      {"measurement": "EC50", "setting": "SARS-CoV-2 [4]", "value": "21.9 ± 2.1", "unit": "µM"},
      {"measurement": "expression of viral proteins S and N (Western blot)", "setting": "SARS-CoV-2 [12]", "value": "suppressed the expression of viral proteins S and N dose dependently"},
      {"measurement": "fraction converted into difenoxin", "setting": "[10]; within 30 min after intravenous injection, 5 mg/kg", "value": "approximately 90%"},
      {"measurement": "reduction in viral RNA levels in culture supernatants", "setting": "SARS-CoV-2 [6]; 100 µM", "value": "between one and two logs"},
      {"measurement": "SI, selectivity index, ratio of CC50 to EC50", "setting": "[2]", "value": ">71.4"},
      {"measurement": "EC50", "setting": "[2]", "value": "1.4 ± 1.1", "unit": "µM"},
      {"measurement": "levels of S2 and additional S cleavage products (Western blot)", "setting": "SARS-CoV-2 [7]", "value": "dose-dependently reduced"},
      {"measurement": "CC50", "setting": "in vitro", "value": "> 100", "unit": "µM"},
      {"measurement": "cytotoxicity at the highest tested concentration", "setting": "Calu-3 cells; 300 µM", "value": "no cytotoxicity"},
      {"measurement": "viral RNA copy numbers in culture supernatants", "setting": "SARS-CoV-2 [8]", "value": "efficiently suppressed"},
      {"measurement": "reduction of viral RNA copy number in the lungs", "setting": "SARS-CoV-2 [1]; hACE2 transgenic mice, […], on day 3, 10 mg/kg/day", "value": 70, "unit": "%"},
      {"measurement": "viral RNA levels in lungs (qRT-PCR, S gene)", "setting": "SARS-CoV-2 [1]; mouse, in vivo, 10 mg/kg/day", "value": "significantly reduced"},
      {"measurement": "nuclei numbers compared to the control", "setting": "SARS-CoV-2 [3]", "value": "80%–120%"},
      {"measurement": "reduction of S protein expression level", "setting": "SARS-CoV-2 [3]", "value": "over 90%"},
      {"measurement": "effect on receptor-mediated endocytosis of SARS-CoV-2 (N protein localisation)", "setting": "SARS-CoV-2 [13]", "value": "inhibits receptor-mediated endocytosis of SARS-CoV-2"},
      {"measurement": "reduction in plaque numbers", "setting": "SARS-CoV-2 [14]", "value": "approximately two-log reduction; also recorded: substantial reduction; also recorded: not under the post-treatment condition"},
      {"measurement": "reduction in plaque numbers", "setting": "SARS-CoV-2 [14]; 20 µM, co-treatment (pre-incu), 30 min preincubation with virus", "value": "substantial reduction"},
      {"measurement": "half-life", "setting": "in vivo", "value": "6.4 ± 0.9", "unit": "h"},
      {"measurement": "effect on acidic pH of endo-lysosomal vesicles", "setting": "[11]", "value": "neutralizes the acidic environment of endo-lysosomal organelles"},
      {"measurement": "decrease of viral RNA levels in culture supernatants", "setting": "SARS-CoV-2 [9]; 10 µM", "value": "one"}
    ]},
    {"compound": "OC(CCN1CCCCC1)(c1ccccc1)c1ccccc1", "note": "[pridinol]", "values": [
      {"measurement": "EC50", "setting": "[2]", "value": "~96.4", "unit": "µM"}
    ]}
  ]
}
